Data reported in PubChem BioAssay (NCI).
Where “and” joins values, the source holds several entries; their conditions need not be identical. Identical values can stand only once.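 1) Cells in 96-well plates. 2) Compound, 48 h, 5 concentrations. 3) Linear interpolation between surrounding doses. 4) Unreached endpoint = highest concentration. GI50: concentration for 50% inhibition of growth. Definition used: TGI = concentration required for complete inhibition of growth.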

Legend:
Experiment in all cases: DTP human tumour cell line panel, 48 h; in the data active = GI50 below about 0.43 µM; inactive = the rest
[1] = system: SK-MEL-2 melanoma
[2] = system: OVCAR-4 ovarian
[3] = system: IGROV1 ovarian
[4] = system: NCI-H460 lung
[5] = system: KM12 colon
[6] = system: A498 renal
[7] = system: SK-MEL-5 melanoma
[8] = system: M14 melanoma
[9] = system: MOLT-4 leukemia
[10] = system: EKVX NSCLC
[11] = system: CCRF-CEM leukemia
[12] = system: SNB-78 CNS
[13] = system: SF-295 CNS
[14] = system: LXFL 529 NSCLC
[15] = system: SK-MEL-28 melanoma
[16] = system: HT29 colon
[17] = system: 786-0 renal
[18] = system: OVCAR-3 ovarian
[19] = system: UACC-62 melanoma
[20] = system: SNB-19 CNS
[21] = system: RPMI-8226 leukemia
[22] = system: HOP-18 NSCLC
[23] = system: OVCAR-8 ovarian
[24] = system: SNB-75 CNS
[25] = system: SF-268 CNS
[26] = system: SW-620 colon
[27] = system: KM20L2 colon
[28] = system: HCC-2998 colon
[29] = system: HOP-62 NSCLC
[30] = system: HCT-116 colon
[31] = system: UO-31 renal
[32] = system: DMS 114 small cell lung
[33] = system: SF-539 CNS
[34] = system: CAKI-1 renal
[35] = system: ACHN renal
[36] = system: HCT-15 colon
[37] = system: COLO 205 colon
[38] = system: DLD-1 colon
[39] = system: K-562 leukemia
[40] = system: A549 NSCLC
[41] = system: NCI-H23 lung
[42] = system: SK-OV-3 ovarian
[43] = system: SN12C renal
[44] = system: OVCAR-5 ovarian
[45] = system: MALME-3M melanoma
[46] = system: TK-10 renal
[47] = system: UACC-257 melanoma
[48] = system: U251 CNS
[49] = system: NCI-H522 lung
[50] = system: T-47D breast
[51] = system: MDA-N
[52] = system: DU-145 prostate
[53] = system: PC-3 prostate
[54] = system: NCI-H226 lung
[55] = system: MCF7 breast
[56] = system: LOX IMVI melanoma
[57] = system: M19-MEL melanoma
[58] = system: HOP-92 NSCLC
[59] = system: BT-549 breast
[60] = system: DMS 273 small cell lung
[61] = system: RXF 393 renal
[62] = system: HL-60(TB) leukemia
[63] = system: SR leukemia

C/C1=N\NC(=O)c2ccccc2C(=O)N/N=C(\C)c2cccc1n2.O=[N+]([O-])[O-].[Zn+2]
> 100 µM: TGI [1] | TGI [2] | TGI [3] | TGI [4] | TGI [5] | TGI [6] | TGI [7] | TGI [8] | TGI [9] | TGI [10] | TGI [11] | TGI [12] | TGI [13] | TGI [14] | TGI [15] | TGI [16] | TGI [17] | TGI [18] | TGI [19] | TGI [20] | TGI [21] | TGI [22] | TGI [23] | TGI [24] | TGI [25] | TGI [26] | TGI [27] | TGI [28] | TGI [29] | TGI [30] | TGI [31] | TGI [32] | TGI [33] | TGI [34] | TGI [35] | TGI [36] | TGI [37] | TGI [38] | TGI [39] | TGI [40] | TGI [41] | TGI [42] | TGI [43] | TGI [44] | TGI [45] | TGI [46] | TGI [47] | TGI [48] | TGI [49]

CC[C@@]1(O)C[C@H](OC2CC(N(C)C)C(OC3CC(O)C(OC4CCC(=O)C(C)O4)C(C)O3)C(C)O2)c2c(cc3c(c2O)C(=O)c2c(O)ccc(O)c2C3=O)[C@H]1C(=O)OC (stereo partly specified)
active: GI50 [4] 54.1 pM | GI50 [12] 0.00311 µM | GI50 [14] 11.2 pM | GI50 [27] 66.7 pM | GI50 [30] 54 pM | GI50 [32] 0.000291 µM | GI50 [40] 0.000449 µM | GI50 [42] 0.0221 µM | GI50 [57] 12.5 pM | GI50 [47] < 0.0001 µM
0.022 µM and 0.0306 µM and 0.0347 µM: TGI [32]
0.0142 µM and 0.0245 µM: TGI [6]
0.0221 µM and 0.065 µM: TGI [44]
0.012 µM and 0.0118 µM and 0.0205 µM: TGI [19]
0.00581 µM and 0.0298 µM: TGI [36]
0.0164 µM and 0.0258 µM and 0.0225 µM: TGI [35]
0.00641 µM and 0.0275 µM: TGI [54]
0.0314 µM and 0.0126 µM and 0.113 µM: TGI [5]
16.2 nM [middle of 4 runs]: TGI [16]
0.0185 µM and 0.0374 µM and 0.152 µM: TGI [8]
0.0121 µM and 0.0129 µM and 0.0336 µM: TGI [57]
0.000508 µM and < 0.0001 µM: TGI [31]
< 0.0001 µM: TGI [30]
0.0737 µM: TGI [38]
inactive: GI50 [22] 11.7 µM
0.012 µM and 0.0478 µM: TGI [11]
0.00927 µM and 0.00276 µM: TGI [59]
0.000668 µM: TGI [56]
0.101 µM: TGI [55]
0.014 µM and 0.0198 µM: TGI [60]
0.038 µM: TGI [52]
0.0781 µM and 0.041 µM and 0.2 µM: TGI [27]
0.00569 µM and 0.0121 µM: TGI [50]
0.0166 µM and 0.0198 µM and 0.0243 µM: TGI [1]
0.0062 µM: TGI [53]
0.0353 µM and 0.0713 µM and 0.092 µM: TGI [58]
0.000343 µM and < 0.0001 µM: TGI [4]
0.119 µM: TGI [39]
0.00259 µM: TGI [51]
24.1 µM: TGI [22]

c1ccc(-n2cnnc2-c2nsc3ccccc23)cc1
> 100 µM: TGI [1] | TGI [2] | TGI [3] | TGI [4] | TGI [5] | TGI [7] | TGI [8] | TGI [9] | TGI [10] | TGI [11] | TGI [12] | TGI [14] | TGI [15] | TGI [16] | TGI [18] | TGI [19] | TGI [20] | TGI [21] | TGI [22] | TGI [23] | TGI [24] | TGI [25] | TGI [26] | TGI [27] | TGI [61] | TGI [28] | TGI [29] | TGI [30] | TGI [31] | TGI [33] | TGI [35] | TGI [36] | TGI [37] | TGI [39] | TGI [40] | TGI [56] | TGI [41] | TGI [43] | TGI [57] | TGI [58] | TGI [44] | TGI [46] | TGI [47] | TGI [60] | TGI [62] | TGI [48]

O=c1c2cc(Br)ccc2nc(-c2ccccc2)n1NCC1(O)OCC(O)C(O)C1O (stereo unspecified)
> 100 µM: TGI [1] | TGI [2] | TGI [4] | TGI [5] | TGI [6] | TGI [7] | TGI [8] | TGI [9] | TGI [10] | TGI [11] | TGI [12] | TGI [13] | TGI [14] | TGI [15] | TGI [16] | TGI [17] | TGI [18] | TGI [19] | TGI [20] | TGI [21] | TGI [23] | TGI [24] | TGI [25] | TGI [26] | TGI [27] | TGI [61] | TGI [29] | TGI [30] | TGI [31] | TGI [54] | TGI [32] | TGI [33] | TGI [34] | TGI [35] | TGI [36] | TGI [37] | TGI [39] | TGI [40] | TGI [56] | TGI [41] | TGI [42] | TGI [43] | TGI [57] | TGI [44] | TGI [45] | TGI [47] | TGI [60] | TGI [62] | TGI [48] | TGI [49] | TGI [63]
